From US20060189530A1 (Bayer Corporation, priority 1996, published 2006)
Where “and” joins values, the source holds several entries; their conditions need not be identical. Identical values can stand only once. One block for each molecule: values may come before it. Ends that are not written are not given here.

Assays:
[1] = target: T1, rat NPY Y5 receptor (Y861 clone) (Rattus norvegicus, UniProt Q63634); assay: [125I]PYY competition binding, rat Y5 Y861 clone transiently expressed in COS-7 membranes; set-up: expressed in transfected cells; host or cells: COS-7 (transient), membranes; conditions: transient COS-7 membranes, ± SEM, read-out: NPY Y5 binding affinity Ki, RAT Y861 Clone
T1 sequence (Q63634 1-445): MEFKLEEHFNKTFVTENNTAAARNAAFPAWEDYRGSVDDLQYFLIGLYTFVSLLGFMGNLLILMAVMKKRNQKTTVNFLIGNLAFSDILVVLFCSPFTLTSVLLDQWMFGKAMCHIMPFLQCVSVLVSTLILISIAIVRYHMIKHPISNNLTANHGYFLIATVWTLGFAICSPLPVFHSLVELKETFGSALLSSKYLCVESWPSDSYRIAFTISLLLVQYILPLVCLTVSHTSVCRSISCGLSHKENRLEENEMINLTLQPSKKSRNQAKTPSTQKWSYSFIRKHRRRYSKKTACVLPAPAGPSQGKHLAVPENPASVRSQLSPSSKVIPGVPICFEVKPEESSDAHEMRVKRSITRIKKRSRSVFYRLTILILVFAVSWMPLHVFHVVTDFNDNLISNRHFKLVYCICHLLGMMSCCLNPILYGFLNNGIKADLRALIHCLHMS
Procedure: Monkey kidney cells (COS-7) were maintained in T-175 cm^2 flasks (NUNC) at 37° C. with 5% CO2 in a humidified atmosphere. Cells were grown in Dulbecco's Modified Eagle Medium (DMEM) supplemented with 2 mM glutamine, 10% fetal bovine serum, 1 mM sodium pyruvate, and antibiotic/antimycotic. Cells at 70% confluency were transfected with Y5 DNA using the Lipofectamine method (GIBCO-BRL). 15 μg DNA and 90 μl Lipofectamine were added to each flask. Media was completely replaced 24 hours post transfection, and membranes were harvested 24 hours later.
The media was removed from each flask of transfected cells, and the cells were washed twice with 20 ml ice-cold phosphate buffered saline. The cells were scraped from the flask in 5 ml of Tris buffer (20 mM Tris-HCl and 5 mM EDTA, pH 7.7), and then transferred to a centrifuge tube. […] Protein concentration was measured using the Bio-Rad kit pursuant to the standard manufacturer's protocol (Biorad Laboratories, Hercules, Calif.),with bovine IgG as the standard. […]
(§1) After a 2 hour incubation at room temperature with constant mixing, the samples were aspirated on a vacuum manifold. […] The individual wells were punched into 12×75 mm plastic tubes, and counted on a Wallac (Gaithersburg, Md.) gamma counter. Binding data were analyzed using the nonlinear regression curve-fitting program RS/1 (BBN Software Products Corp., Cambridge, Mass.). […]

[2] = target: T2, rat NPY Y5 receptor (6B clone) (Rattus norvegicus, UniProt Q63634, L61P); assay: [125I]PYY competition binding, rat Y5 6B clone transiently expressed in COS-7 membranes; conditions: transient COS-7 membranes, ± SEM, read-out: NPY Y5 binding affinity Ki, RAT 6B Clone
T2 construct: expressed in transfected cells; host or cells: COS-7 (transient), membranes
T2 sequence (Q63634 1-445 L61P): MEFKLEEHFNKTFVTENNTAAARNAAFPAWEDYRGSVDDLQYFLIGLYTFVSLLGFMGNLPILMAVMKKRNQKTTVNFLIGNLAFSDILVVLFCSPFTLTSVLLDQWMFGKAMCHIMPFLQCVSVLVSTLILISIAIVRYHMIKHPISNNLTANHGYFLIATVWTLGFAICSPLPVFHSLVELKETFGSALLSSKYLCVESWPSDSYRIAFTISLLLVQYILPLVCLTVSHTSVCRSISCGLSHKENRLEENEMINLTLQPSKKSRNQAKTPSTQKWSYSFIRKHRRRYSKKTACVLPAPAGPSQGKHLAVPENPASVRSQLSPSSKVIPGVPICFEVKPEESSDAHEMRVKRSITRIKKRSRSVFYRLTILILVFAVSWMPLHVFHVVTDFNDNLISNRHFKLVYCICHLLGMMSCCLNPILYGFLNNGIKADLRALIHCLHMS
Procedure: Cells at 70% confluency were transfected with Y5 DNA using the Lipofectamine method (GIBCO-BRL). 15 μg DNA and 90 μl Lipofectamine were added to each flask. Media was completely replaced 24 hours post transfection, and membranes were harvested 24 hours later.
The media was removed from each flask of transfected cells, and the cells were washed twice with 20 ml ice-cold phosphate buffered saline. The cells were scraped from the flask in 5 ml of Tris buffer (20 mM Tris-HCl and 5 mM EDTA, pH 7.7), and then transferred to a centrifuge tube. Each flask was washed with an additional 5 ml of Tris buffer and combined in the centrifuge tube. The cells were polytroned for 2×10 seconds (12 mm probe, 7000-8000 rpm) and centrifuged 5 minutes (Centra 7R, International Equipment Co., Needham Heights, Mass.) at 800 rpm and 4° C. […] Protein concentration was measured using the Bio-Rad kit pursuant to the standard manufacturer's protocol (Biorad Laboratories, Hercules, Calif.),with bovine IgG as the standard. […]
as §1

human NPY Y5 receptor [3] = target: T3, human NPY Y5 receptor (Homo sapiens, UniProt Q15761); assay: [125I]PYY competition binding, human Y5 clone transiently expressed in COS-7 membranes; conditions: transient COS-7 membranes, ± SEM, read-out: NPY Y5 binding affinity Ki, HUMAN Clone
T3 construct: containing the full length open reading frame encoding the receptor; expressed in transfected cells
T3 sequence (Q15761 1-445): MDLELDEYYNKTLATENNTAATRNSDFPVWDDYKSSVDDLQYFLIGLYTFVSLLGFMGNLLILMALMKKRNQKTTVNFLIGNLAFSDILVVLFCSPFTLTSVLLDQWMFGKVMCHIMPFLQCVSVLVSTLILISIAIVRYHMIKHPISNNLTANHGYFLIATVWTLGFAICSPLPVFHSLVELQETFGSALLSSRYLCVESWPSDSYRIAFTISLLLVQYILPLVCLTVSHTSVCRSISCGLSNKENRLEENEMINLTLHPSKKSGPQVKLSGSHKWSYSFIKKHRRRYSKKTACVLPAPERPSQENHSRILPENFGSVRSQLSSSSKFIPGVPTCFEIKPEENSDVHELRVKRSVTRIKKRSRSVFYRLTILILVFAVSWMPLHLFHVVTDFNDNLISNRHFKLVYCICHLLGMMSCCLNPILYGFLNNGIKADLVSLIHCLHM

[4] = test system: food intake of Wistar rats; assay: In vivo feeding after ICV injection in rats; set-up: species or system rat; conditions: for Feeding: ICV, 1-6 nmoles peptide, chow consumed in 2 hours; for Feeding response in rats (in words): in vivo feeding model
Procedure: Adult male Wistar rats were surgically implanted with a chronic intracerebral ventricular (ICV) cannula (Plastic Products, Roanoke, Va.) using a stereotaxic instrument. Several days after the surgery, 1-6 nmoles of each peptide (or saline) was injected into the lateral ventricle of 4-12 rats in a volume of 5-10 μl. The quantity of rodent chow consumed in a 2 hour period was measured.

Rat Y2 (clone) = target: T4, Rat Y2 (clone) (Rattus norvegicus, UniProt Q9ERC0); assay: [125I]PYY binding assay for rat Y2 receptor
T4 sequence (Q9ERC0 1-381): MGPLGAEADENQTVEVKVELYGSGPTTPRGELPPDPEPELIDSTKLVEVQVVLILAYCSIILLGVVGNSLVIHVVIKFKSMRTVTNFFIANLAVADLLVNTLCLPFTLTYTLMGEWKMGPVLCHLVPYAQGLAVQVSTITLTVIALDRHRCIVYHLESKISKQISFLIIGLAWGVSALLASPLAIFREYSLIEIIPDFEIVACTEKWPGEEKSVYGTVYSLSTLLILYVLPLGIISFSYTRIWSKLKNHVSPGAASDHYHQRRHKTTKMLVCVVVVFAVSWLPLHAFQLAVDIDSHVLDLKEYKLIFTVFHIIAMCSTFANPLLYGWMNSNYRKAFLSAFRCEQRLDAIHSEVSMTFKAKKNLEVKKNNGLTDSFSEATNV

Rat Y1 (clone) = target: T5, Rat Y1 (clone) (Rattus norvegicus, UniProt P21555); assay: [125I]PYY binding assay for rat Y1 receptor
T5 sequence (P21555 1-382): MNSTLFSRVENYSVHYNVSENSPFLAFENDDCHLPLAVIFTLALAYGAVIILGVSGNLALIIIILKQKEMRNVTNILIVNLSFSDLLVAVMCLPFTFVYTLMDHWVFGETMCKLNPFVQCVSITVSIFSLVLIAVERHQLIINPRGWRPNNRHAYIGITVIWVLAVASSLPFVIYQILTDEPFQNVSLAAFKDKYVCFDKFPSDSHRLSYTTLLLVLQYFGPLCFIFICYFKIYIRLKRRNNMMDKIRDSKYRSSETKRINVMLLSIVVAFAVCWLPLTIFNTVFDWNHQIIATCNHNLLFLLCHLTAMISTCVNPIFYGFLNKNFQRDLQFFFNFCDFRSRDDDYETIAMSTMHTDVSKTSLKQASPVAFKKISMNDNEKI

human NPY Y5 receptor [5] = target: T6, human NPY Y5 receptor (human, UniProt Q15761 1-445); assay: [125I]PYY competition, membranes of stable 293 clone 293.hY5.sb.8
T6 construct: also called HUMAN Clone
T6 sequence: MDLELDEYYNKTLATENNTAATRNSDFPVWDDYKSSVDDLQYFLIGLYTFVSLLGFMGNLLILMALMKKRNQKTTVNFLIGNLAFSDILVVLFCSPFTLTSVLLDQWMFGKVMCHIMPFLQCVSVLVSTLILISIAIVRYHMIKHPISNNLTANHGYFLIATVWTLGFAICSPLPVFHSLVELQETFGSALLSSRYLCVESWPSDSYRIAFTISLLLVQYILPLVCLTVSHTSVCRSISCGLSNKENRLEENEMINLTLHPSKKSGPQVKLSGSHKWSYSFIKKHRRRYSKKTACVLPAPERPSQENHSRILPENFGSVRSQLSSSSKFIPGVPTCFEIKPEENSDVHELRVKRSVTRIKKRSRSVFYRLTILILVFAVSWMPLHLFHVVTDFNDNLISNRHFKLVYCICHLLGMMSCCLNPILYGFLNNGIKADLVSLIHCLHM

[6] = target: T7, rat NPY Y5 receptor, Y861 clone (rat, UniProt Q63634 1-445); assay: [125I]PYY competition, membranes of stable 293S clone 293S.Y861.2
T7 sequence: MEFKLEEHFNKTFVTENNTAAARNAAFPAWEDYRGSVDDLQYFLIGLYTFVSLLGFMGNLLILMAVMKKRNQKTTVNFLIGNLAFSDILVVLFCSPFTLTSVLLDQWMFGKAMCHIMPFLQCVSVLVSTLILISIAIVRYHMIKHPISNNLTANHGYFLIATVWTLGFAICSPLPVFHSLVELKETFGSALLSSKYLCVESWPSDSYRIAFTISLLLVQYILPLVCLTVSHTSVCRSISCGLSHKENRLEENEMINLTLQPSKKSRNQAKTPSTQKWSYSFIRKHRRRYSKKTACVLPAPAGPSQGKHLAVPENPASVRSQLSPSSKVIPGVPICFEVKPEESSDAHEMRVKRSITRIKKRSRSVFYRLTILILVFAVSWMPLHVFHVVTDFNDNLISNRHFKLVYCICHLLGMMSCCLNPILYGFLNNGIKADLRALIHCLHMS

[7] = target: T7, rat NPY Y5 receptor, Y861 clone; assay: cell-based or functional assay
human NPY Y5 receptor [8] = target: T6, human NPY Y5 receptor; assay: [125I]PYY competition, membranes of transiently transfected COS-7 cells; individual experiment
Procedure: The binding assays were performed on GF/C Millipore (Bedford, Mass.) 96-well plates pretreated with 0.02% polyethylenimine (PEI) for at least 2 hours prior to use. The PEI was aspirated from the plates on a vacuum manifold immediately before the samples were added to the wells. All peptides, tissue and radioligand were diluted with binding buffer (25 mM Tris, 120 mM NaCl, 5 mM KCl, 1.2 MM KH₂PO₄, 2.5 mM CaCl₂, 1.2 mM MgSO₄, 0.1% BSA and 0.5 mg/ml bacitracin, pH 7.4).
After a 2 hour incubation at room temperature with constant mixing, the samples were aspirated on a vacuum manifold. The wells were washed with three 200 μl aliquots of ice-cold binding buffer. The individual wells were punched into 12×75 mm plastic tubes, and counted on a Wallac (Gaithersburg, Md.) gamma counter. Binding data were analyzed using the nonlinear regression curve-fitting program RS/1 (BBN Software Products Corp., Cambridge, Mass.).
Each point is the average value of triplicate determinations from a representative experiment. […] Kᵢ values were calculated from the IC₅₀ values using the Cheng-Prusoff correction, such that Kᵢ=IC₅₀/(1±(L/Kd)), where L is the radioligand concentration and Kd is the dissociation constant.

Ki [1]: > 1000 nM
Ki [2]: > 1000 nM
Ki (human NPY Y5 receptor [3]): > 1000 nM
Molecule: NC(N)=NCCC[C@@H](NC(=O)C(c1ccccc1)c1ccccc1)C(=O)NCc1ccc(O)cc1 [BIBP3226]

Molecule: (2-36)NPY [r/h(2-36)NPY]
Feeding [4]: >5 g/2 h

Affinity for Y2 receptor (in words) (Rat Y2 (clone)): binds preferentially
Affinity for Y1 receptor (in words) (Rat Y1 (clone)): much weaker
Molecule: (3-36)NPY [p(3-36)NPY]
Feeding [4]: >5 g/2 h
Feeding response in rats (in words) [4]: stimulate feeding

Molecule: (10-36)NPY [r/h(10-36)NPY]
Feeding [4]: <3 g/2 h

Ki (human NPY Y5 receptor [5]): 24 nM
Ki [6]: 29 nM
Molecule: (13-36)PYY (peptide)

Molecule: (18-36)NPY [p(18-36)NPY]
Feeding [4]: <3 g/2 h

Molecule: (20-36)NPY [r/h(20-36)NPY]
Feeding [4]: <3 g/2 h
Feeding response in rats (in words) [4]: do not elicit feeding

Molecule: (22-36)NPY [r/h(22-36)NPY]
Feeding [4]: <3 g/2 h

Molecule: (26-36)NPY [r/h(26-36)NPY]
Feeding [4]: <3 g/2 h

Molecule: (Leu^31Pro^34)(3-36)NPY [(LP)(3-36)NPY]
Feeding [4]: >5 g/2 h
Feeding response in rats (in words) [4]: stimulates feeding

Molecule: (Leu^31Pro^34)NPY [p(LP)NPY]
Feeding [4]: >5 g/2 h
Feeding response in rats (in words) [4]: stimulate feeding

Molecule: (Leu^31Pro^34)PYY [h(LP)PYY]
Feeding [4]: >5 g/2 h

Molecule: Neuropeptide Y [r/hNPY]
Feeding [4]: >5 g/2 h

EC50, forskolin-stimulated adenylate cyclase (cAMP), 293S.Y861.2 cells [7]: 1 nM
B1: hPP (human pancreatic polypeptide) (peptide, UniProt P01298 30-65, looked up)
peptide: APLEPVYPGDNATPEQMAQYAADLRRYINMLTRPRY

Ki (human NPY Y5 receptor [8]): 89 nM and 65 nM
B2: r(13-36)NPY (peptide, UniProt P07808 42-65, looked up)
peptide: PAEDMARYYSALRHYINLITRQRY
modifications: ends and bridges not checked
notes: range 13-36; it may be a misprint for r(13-36)PYY (rat NPY is elsewhere written r/h)
